Data set [1] addresses T1, 5-hydroxytryptamine receptor 2C (Homo sapiens) (UniProt P28335).
T1 sequence (whole entry): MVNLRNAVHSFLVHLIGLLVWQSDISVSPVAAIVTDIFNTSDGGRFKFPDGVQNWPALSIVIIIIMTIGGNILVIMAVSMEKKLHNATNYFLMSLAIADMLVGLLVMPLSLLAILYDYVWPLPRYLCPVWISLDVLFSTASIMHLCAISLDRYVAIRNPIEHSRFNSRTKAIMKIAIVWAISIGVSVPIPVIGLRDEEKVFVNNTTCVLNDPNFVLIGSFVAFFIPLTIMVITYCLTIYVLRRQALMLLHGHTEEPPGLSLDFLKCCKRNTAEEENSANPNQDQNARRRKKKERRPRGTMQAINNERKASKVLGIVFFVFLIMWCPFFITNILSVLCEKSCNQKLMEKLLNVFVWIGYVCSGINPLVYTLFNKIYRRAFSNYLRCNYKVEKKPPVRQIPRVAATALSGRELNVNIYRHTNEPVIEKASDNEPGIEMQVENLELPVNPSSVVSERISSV
Briefly: Agonist activity at 5HT2C receptor relative to control. The data set is classed as functional. Set-up: concentration or dose not given beside the values.

Data set [2] addresses T2, 5-hydroxytryptamine receptor 2C (Homo sapiens, UniProt P28335).
T2 sequence (P28335 whole entry): T1 sequence (whole entry)
Kind of data set: Binding affinity to 5HT2C receptor.

Data set [3] deals with T3, 5-hydroxytryptamine receptor 2B (Homo sapiens, UniProt P41595). Briefly: Binding affinity to 5HT2B receptor.
T3 sequence (P41595 whole entry): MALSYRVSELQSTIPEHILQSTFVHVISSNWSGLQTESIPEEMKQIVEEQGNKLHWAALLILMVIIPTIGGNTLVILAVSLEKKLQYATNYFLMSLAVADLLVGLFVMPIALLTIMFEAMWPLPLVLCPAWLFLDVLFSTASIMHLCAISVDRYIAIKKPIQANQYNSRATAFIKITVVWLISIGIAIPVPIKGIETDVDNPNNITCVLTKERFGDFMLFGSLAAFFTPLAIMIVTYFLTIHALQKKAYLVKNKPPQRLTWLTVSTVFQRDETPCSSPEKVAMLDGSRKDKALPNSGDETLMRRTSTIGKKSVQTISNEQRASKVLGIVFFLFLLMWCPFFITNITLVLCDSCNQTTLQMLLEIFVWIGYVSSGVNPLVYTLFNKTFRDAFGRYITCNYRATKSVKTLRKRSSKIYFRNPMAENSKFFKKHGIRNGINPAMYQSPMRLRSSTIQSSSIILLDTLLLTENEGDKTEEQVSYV
Data set [4] addresses T2, 5-hydroxytryptamine receptor 2C. Briefly: Agonist activity at 5HT2C receptor. The data set is classed as functional.
The target in data set [5] is T4, 5-hydroxytryptamine receptor 2A (Homo sapiens, UniProt P28223). Briefly: Binding affinity to 5HT2A receptor.
T4 sequence (P28223 whole entry): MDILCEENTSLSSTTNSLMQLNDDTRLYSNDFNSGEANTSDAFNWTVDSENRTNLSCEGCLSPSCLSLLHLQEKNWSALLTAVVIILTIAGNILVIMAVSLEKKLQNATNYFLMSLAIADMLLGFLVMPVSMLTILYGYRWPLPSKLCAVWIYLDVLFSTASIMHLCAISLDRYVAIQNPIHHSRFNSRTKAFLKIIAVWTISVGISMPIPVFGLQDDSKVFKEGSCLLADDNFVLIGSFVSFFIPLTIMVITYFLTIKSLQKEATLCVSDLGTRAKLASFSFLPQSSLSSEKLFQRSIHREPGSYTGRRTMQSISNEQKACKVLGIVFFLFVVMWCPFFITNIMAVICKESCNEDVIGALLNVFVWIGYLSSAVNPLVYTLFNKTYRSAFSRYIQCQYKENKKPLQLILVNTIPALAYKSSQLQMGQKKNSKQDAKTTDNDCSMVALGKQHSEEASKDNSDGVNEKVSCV
In data set [6] the target is T3, 5-hydroxytryptamine receptor 2B. Briefly: Agonist activity at 5HT2B receptor. The data set is classed as functional.
The target in data set [7] is T4, 5-hydroxytryptamine receptor 2A. Kind of data set: Agonist activity at 5HT2A receptor. It counts as functional.
For data set [8] the target is unchanged. Kind of data set: Agonist activity at 5HT2A receptor relative to control. The data set is classed as functional.
For data set [9], the species on record is Rattus norvegicus. Kind of data set: Ex vivo agonist activity at 5HT2B receptor in rat stomach fundus. It counts as functional, organism-based.
The next data set is filed under the species Macaca mulatta. Kind of data set: Activity at MAPK in monkey heart valve […] cells.
For data set [10], the species on record is Rattus norvegicus. Briefly: Effect on 5HT2A receptor-mediated head twitches in rat. The data set is classed as functional, organism-based.
For data set [11], the system named is Rattus norvegicus. Briefly: Inhibition of spontaneous nocturnal food intake in po dosed Sprague-Dawley rat measured up to 840 mins. The data set is classed as functional, organism-based.
For data set [12], the system named is Rattus norvegicus. Kind of data set: Inhibition of spontaneous nocturnal food intake in po dosed Sprague-Dawley rat measured up to 25 hrs. The data set is classed as functional, organism-based.
A further data set relates to Plasma. Briefly: Fraction unbound in Sprague-Dawley rat plasma. The data set is classed as ADME, cell-free.
Data set [13] is described as follows: Ratio of drug level in RBC to plasma in Sprague-Dawley rat. The data set is classed as ADME. The settings on record: in vivo.
A short description of data set [14]: Ratio of total drug level in brain to plasma in Sprague-Dawley rat. It counts as ADME, cell-free. The settings on record: brain and plasma.
The nature of data set [15]: Ratio of free drug level in brain to plasma in Sprague-Dawley rat. The settings on record: brain and plasma. The data set is classed as ADME, cell-free.
A short description of data set [16]: Bioavailability in rat. The data set is classed as ADME, organism-based. The settings on record: in vivo.
The nature of data set [17]: Bioavailability in dog. The settings on record: in vivo. It counts as ADME, organism-based, Canis lupus familiaris.
Data set [18] in a line: Half life in human liver microsomes. The data set is classed as ADME, Microsome.
The nature of data set [19]: Half life in human hepatocytes. The data set is classed as ADME, cell-based, Liver, Hepatocyte.
Data set [20] can be described thus: Selectivity ratio of Ki for 5HT2B receptor to Ki for 5HT2C receptor.

Structures are written as SMILES. Active and inactive are the calls of the source. No cut-off for these calls is given here. A value given as a limit tells only on which side of the number the result lay.

`O=C(NCc1ccc(C2CCCCC2)cc1)[C@@H]1CCCN1`: in [1], the Activity stood at 53%. For the same compound, the Ki in data set [2] stood at 4.4 nM; in data set [3] (read-out: Ki), 4120 nM. The same compound registered an EC50 in data set [4] of 88 nM.

On to `O=C(NCc1ccc(OCc2ccccc2)cc1)[C@@H]1CCCN1`, for which, in [1], the Activity worked out at 40%. The Ki in data set [2] turned out to be 20 nM; in [3] (read-out: Ki) it was 1720 nM. For the same compound, the EC50 in data set [4] is 73 nM.

For `O=C(NCc1ccc(-c2ccc(Cl)cc2)cc1F)N1CCNCC1`, the Ki in data set [2] was 4 nM; in data set [3] (read-out: Ki), 3500 nM.

Regarding `O=C(NCc1ccc(OC(F)(F)F)cc1)C1CCNC1` (centres undefined), the Ki in data set [2] came to 643 nM.

The compound `O=C(NCc1ccc(-c2cc(Cl)cc(Cl)c2)cc1)[C@@H]1CCCN1` registered an Activity in [1] of 65%. The compound further showed a Ki in [2] of 8 nM. A half-maximal response in data set [4] (EC50) required 183 nM.

For `NCc1cccc(C(=O)NCc2ccc(OC(F)(F)F)cc2)c1`, the Ki in [2] worked out at 585 nM.

In [2], `C[C@@H]1CNC[C@H](C)N1C(=O)OCc1ccccc1` displayed a Ki of 83 nM.

In the case of `CC1(C)CCC(Oc2cc(F)c(CNC(=O)[C@@H]3CCCN3)cc2F)CC1`, the Activity in [1] is 88%; in data set [8] it was 98%. In addition, the Ki in data set [5] (read-out: Ki) turned out to be 13.7 nM; in data set [2], 1.8 nM; in [3] (read-out: Ki), 1670 nM. The EC50 was more than 10000 nM in [6], 130 nM in data set [7] and 1 nM in data set [4].

In turn, `O=C(NCc1ccc(Oc2cccc(F)c2)cc1)[C@@H]1CCCN1` returned an Activity in [1] of 46%. Further, the Ki in data set [2] is 23 nM; in [3] (read-out: Ki), 2400 nM. This compound also yielded an EC50 in data set [4] of 38 nM.

With `Cc1noc(C)c1COc1cc(F)c(COC(=O)N2[C@H](C)CNC[C@@H]2C)c(F)c1`, the Ki in [2] is 43 nM; in data set [3] (read-out: Ki), more than 10000 nM.

Regarding `COc1cc(OC2CCC(C)(C)CC2)c(F)cc1CNC(=O)[C@@H]1CCCN1`, the Activity in data set [1] is 95%; in data set [8], 76%; in the data set on Rattus norvegicus [11], “Dose-dependent effect”; in the data set on Rattus norvegicus [12], “Dose-dependent effect”. For the same compound, the Ki in data set [5] (read-out: Ki) was found to be 12.8 nM; in data set [2], 0.9 nM; in data set [3] (read-out: Ki), 3940 nM. The EC50 in data set [6] is more than 10000 nM; in data set [7], 440 nM; in [4] it was 2.3 nM. In addition, the result in the data set filed under Rattus norvegicus [9], in the data set listed under Macaca mulatta and in the data set filed under Rattus norvegicus [10] was inactive. Further, the fraction unbound with Plasma turned out to be 3.6%. The Ratio in data set [13] was 0.7. Moreover, the Kp in data set [14] was 10. Further, the Kp uu in data set [15] was 0.4. Besides, the bioavailability in [16] and in data set [17] was 5.5% in each case. In addition, the half-life was determined as 1.67 h in data set [18] and 7.33 h in data set [19]. In addition, in data set [20], the Ratio Ki was determined as 10000.

On to `O=C(NCc1ccc(OC(F)(F)F)cc1)[C@@H]1CCCN1`, for which the figures for the Ki in data set [2] and in [3] (read-out: Ki) were 324 nM and more than 10000 nM, respectively. For the same compound, the Ratio Ki in data set [20] was more than 1000.

`COc1cc(OCC2CCCCC2)c(F)cc1CNC(=O)[C@@H]1CCCN1` showed an Activity in data set [1] of 85%. The results for the Ki entry in [5], in data set [2] and in [3] were “Not Active”, 1.7 nM and “Not Active”, respectively. The EC50 amounted to 4030 nM in [6], 500 nM in data set [7] and 4.97 nM in data set [4].

The compound `C[C@H]1CC[C@@H](Oc2c(F)cc(CNC(=O)[C@@H]3CCCN3)cc2F)CC1` gave an Activity in [1] of 46%. Also, the Ki result in data set [5] is “Not Active”; in [2], 25 nM; in data set [3], “Not Active”. Also, the EC50 in data set [6] was more than 10000 nM; in [7] it was 153 nM; in data set [4] it was 44 nM.

(Values after ChEMBL document CHEMBL1156305 (Bioorg Med Chem Lett, 2010).)
